Where “and” joins values, the source holds several entries; their conditions need not be identical. Identical values can stand only once. Like-named read-outs stand apart in the source and are kept apart here.
Key:
[1] = Hepatic metabolic stability (hepatocyte clearance) assay, substrate depletion; format: in vitro ADME, human; details: both sexes, human, hepatocytes
Excerpt: (§1) William’s Medium E (Gibco A1217601), dexamethasone, and cell maintenance cocktail B (Gibco CM4000) were obtained from Thermo Fisher Scientific (Waltham, MA, USA). Hepatosure OptiThaw media (P/N K8000; Lot No. 18–1–0322) was obtained from Sekisui Xenotech (Kansas City, KS, USA). Trypan blue solution (P/N 1450021) was obtained from Bio-Rad (Hercules, CA, USA). Pooled human cryopreserved primary hepatocyte suspensions were obtained from BioIVT (Westbury, NY, USA) and produced using nontransplantable tissue. The human 50-donor pool (mixed gender; Cat X0080005; Lot MYC), selected from BioIVT’s commercially available, prepooled lots, was selected following review of vendor-generated metabolic characterization information. Pooled, mixed-sex human plasma from de-identified donors was obtained from a commercial vendor that operates a U.S. Food and Drug Administration-licensed and inspected donor center (BioIVT bioivt.com (accessed 12 May 2023). Donors comprised five males and five females and ranged from 20 to 50 years of age. Plasma collected using anticoagulant K2EDTA was sterile-filtered ([…]) and stored at <−70 °C until use.
(§2) The hepatic metabolic stability assay measures the loss of a parent compound over time in a substrate-depletion approach. Briefly, hepatocyte suspensions, after a viability assessment, were diluted in complete William’s medium E (containing dexamethasone and cell maintenance cocktail B) prior to addition to 96-well polypropylene plates containing an equal volume of media spiked with the test compound (1 μM assay concentration; assay cell density = 50,000 cells/100 μL) and maintained at 37 °C with shaking. At each time point, relevant plates were crashed with an equal volume of ice-cold acetonitrile, centrifuged, and supernatant transferred to a new plate prior to storage at <−70 °C until quantitative analysis. Controls, run in parallel, included cell-free (i.e., media only) and metabolically inactivated hepatocytes to evaluate abiotic chemical stability in the aqueous media matrix with and without cellular protein. In preliminary runs, these controls were run at T0 and T240 only. If significant instability was noted, the hepatocyte clearance assay was rerun, including cell-free samples at each time point and metabolically inactivated hepatocytes at selected time points.
(§3) To process samples for quantitative analysis, samples were thawed and mixed. An aliquot of sample was removed and diluted in acetonitrile (1 part sample plus 9 parts acetonitrile) containing the relevant ISs selected for the PFAS being analyzed (See Table S2). The target at instrument concentration of each IS was 10 pg/μL.
(§4) The curves were generated using concentration/response ratios from the target analyte and IS, with either linear or quadratic regression models. The model and weighting, if necessary, were chosen to most accurately reflect the response of each compound and was evaluated by recalculating the individual calibration points using the curve. An acceptable model reflected an accuracy of ±30% of the theoretical value.
(§5) Hepatic metabolic clearance data were plotted in semi-log format (ln concentration vs. time) with three replicates at each time point, as previously described. […] The equations described below are used to calculate the chemical half-life (T½) and intrinsic in vitro clearance (Clin vitro) with units of μL/(min × million hepatocytes). In Equation (3), 2000 is a scalar used to adjust the assay cell number up to be consistent with units of 1 million cells in the Clint equation.
(§6) Negative controls, including media only and metabolically inactivated hepatocyte controls, were included to monitor abiotic loss (i.e., background clearance) during the assay. Where significant compound loss occurred using the analysis described above, background clearance rates were calculated and used to background-adjust hepatic metabolic clearance rates. […]

[2] = tested on: pooled human cryopreserved primary hepatocyte suspensions; experiment: as above; format: in vitro ADME
Excerpt: as §1, §2, §3, §4, §5, §6

[3] = Abiotic loss in negative controls of the hepatocyte clearance assay (cell-free media, metabolically inactivated hepatocytes); format: in vitro ADME; details: for Hep_Stab_Fail: flag for stability failure in hepatocyte clearance assay controls (1 or Fst = fail, 0 = pass); for Negative Controls, Heat Treated (HT), concentration at 0 min / Negative Controls, Heat Treated (HT), concentration at 240 min: heat treated hepatocytes; for Negative Controls, Heat Treated (HT), concentration at 0 min / Negative Controls, Heat Treated (HT), concentration at 240 min / Negative Controls, No cells (NC), concentration at 0 min / Negative Controls, No cells (NC), concentration at 240 min: Rep 1-3
Summary of the method: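 Test compound at 1 μM incubated at 37 °C with shaking in complete William's medium E, either cell-free or with metabolically inactivated hepatocytes, then quenched with ice-cold acetonitrile for quantitative analysis.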

[4] = In vitro-in vivo extrapolation (IVIVE) to Css and administered equivalent dose (AED); parameters: species or system human; details: for Clhep: IVIVE, hepatocyte Clint scaled to whole-liver clearance; for AED: administered equivalent dose from LOEC and Css; for Fub: fub=fup/(B:P), Fub set to 1 if needed; for CLint: scaled with HPGL 110 mill cells/g, Vl 1596 g
Procedure: Using the experimentally generated PPB (fraction unbound in plasma, fup) and hepatic Clint data, IVIVE was performed as previously described to calculate human steady-state plasma concentrations (Css). Briefly, experimental measures of fup are adjusted using blood:plasma partitioning information to estimate the fraction unbound in blood (fub). Experimental hepatocyte Clint data are scaled up to represent whole-liver clearance (L/h). […] Once estimated, these Css values are considered in conjunction with published in vitro bioactivity concentrations (i.e., lowest-observed effective concentrations, or LOECs) to calculate AEDs (Table 2). See Table S10 for all relevant IVIVE inputs, scalars, calculations, and outputs.

[5] = tested on: human primary cells; details: cited from earlier work
[6] = in vitro; details: both, human, plasma
[7] = tested on: human plasma; experiment: Chemical stability in plasma over the UC assay time course (T5hr/T1hr); details: for Stability (T5hr/ T1hr), Run-specific Avg: average of one UC run (run date in line above); for PPB_Stab_Fail: flag for stability failure in the plasma protein binding assay (1 = fail, 0 = pass); for Mean Stability: mean T5hr/T1hr ratio over all replicates and runs, plasma; for Fstable.Med: median fraction stable in plasma, UC assay Level4; for Stability (T5hr/ T1hr), replicates A, B, C: single replicate of one UC run
[8] = tested on: human plasma; experiment: Ultracentrifugation (UC) plasma protein binding assay, fraction unbound in plasma (fup); details: for fup: 10 μM, 37 °C; for Fup.Med: median fraction unbound in plasma; for Fup.Med / Fup.point: UC assay Level4; for Fup.point: point estimate of fraction unbound in plasma; for Fraction Unbound (fu), replicates A, B, C: single replicate of one UC run (aqueous fraction / Time 5 hr)
[9] = hepatocyte incubation, Rep 1-3, start conc 1000 nM
[10] = heat treated hepatocytes control, 0 vs 240 min
[11] = Assuming 1 mg/kg/day dose rate, BW 70 kg
[12] = human steady-state plasma concentration, assuming 1 mg/kg/day dosage
[13] = BioSeek lowest-observed effect concentration used for AED
[14] = minimum lowest-observed effect concentration, BioSeek platform
[15] = human plasma, ultracentrifugation
[16] = hepatocyte time course, NS = slope not significant

With `Cc1ccc(S(=O)(=O)OCC(F)(F)C(F)(F)C(F)(F)C(F)(F)C(F)(F)C(F)F)cc1` [1H,1H,7H-Perfluoroheptyl 4-methylbenzenesulfonate] the hepatocyte CLint at 1 μM ([1]; background-subtracted, read-out: Bkgd-Sub Clearance (µL/min/106 hepatocytes)) was 23.9 µL/min/1e6 cells, the hepatocyte CLint at 1 μM ([1]; hepatocyte clearance, Conc 1000 nM, not background adjusted, read-out: Unadj Clint) was 31 µL/min/1e6 cells and the hepatocyte CLint at 1 μM ([1]; pooled human hepatocyte suspensions, 1 μM, read-out: In Vitro Clint) was 23.9 µL/min/1e6 cells. For the same compound, the hepatocyte CLint at 1 μM ([1]; unadjusted hepatocyte intrinsic clearance, read-out: Unadj in vitro Clint) was 31 µL/min/1e6 cells, the hepatocyte CLint at 1 μM ([1]; hepatocyte time course, NS = slope not significant, read-out: Linear Regression Results, Best-Fit Values, Clearance) was 31 µL/min/1e6 cells and the half-life at 1 μM ([1]; hepatocyte time course, NS = slope not significant, read-out: Linear Regression Results, Best-Fit Values, Half Life) was 0.746 h. The “Concentration (nM), Time 15 min” value [2, 9] was 1073.03 nM and 1187.92 nM and 943.206 nM, the “Concentration (nM), Time 30 min” value [2, 9] was 985.478 nM and 1012.58 nM and 870.92 nM and the “Concentration (nM), Time 60 min” value [2, 9] was 899.811 nM and 874.355 nM and 982.505 nM. For the same compound, the “Linear Regression Results, Best-Fit Values, Slope” value ([2]; hepatocyte time course) was -0.01549, the half-life at 1 μM ([3]; both sexes, human, heat treated hepatocytes control, 0 vs 240 min, read-out: HT BkgdCl, Half Life) was 2.62 h and the half-life at 1 μM ([3]; buffer, no cells control, 0 vs 240 min, read-out: No Cells BkgdCl, Half Life) was 3.24 h. For the same compound, the Hep_Stab_Fail [3] was 0, the “HT BkgdCl, Slope” value [3, 10] was -0.004413 and the “Negative Controls, Heat Treated (HT), concentration at 0 min” value [3] was 1655.88 nM and 1540.88 nM and 2130.45 nM. The “Negative Controls, Heat Treated (HT), concentration at 240 min” value [3] was 752.335 nM and 712.914 nM and 422.601 nM, the “No Cells BkgdCl, Slope” value ([3]; no cells control, 0 vs 240 min) was -0.003563 and the “Negative Controls, No cells (NC), concentration at 0 min” value [3] was 1381.59 nM and 1965.43 nM and 2200.38 nM. The “Negative Controls, No cells (NC), concentration at 240 min” value [3] was 723.371 nM and 790.633 nM and 803.182 nM, the Css [4, 11] was 4.87 mg/L and 10.01 uM and the Clhep [4] was 0.588 L/h. For the same compound, the AED [4] was 0.6995 mg/kg/day, the Fub [4] was 0.002357 and the Css [4, 12] was 10.01 µM. For the same compound, the CLint [4] was 4187106 µL/min, the LOEC [5, 13] was 7.00 µM and the LOEC [5, 14] was 7 µM. The fraction unbound ([6]; Fraction Unbound (fu), Run-specific Avg, average of one UC run (run date in line above)) was 0.03, the fraction unbound ([6]; Mean fu, fraction unbound in human plasma, ultracentrifugation, some values based on eLOQ) was 0.029 and the “Stability (T5hr/ T1hr), Run-specific Avg” value [7] was 0.983. For the same compound, the PPB_Stab_Fail [7] was 0, the “Mean Stability” value [7] was 1.006 and the Fstable.Med [7] was 1. The “Stability (T5hr/ T1hr), replicates A, B, C” value [7] was 0.9436 and 0.9774 and 1.0981, the fup [8, 15] was 0.0290 and the Fup.Med [8] was 0.116. The Fup.point [8] was 0.0275 and the “Fraction Unbound (fu), replicates A, B, C” value [8] was 0.01902 and 0.02822 and 0.04008.

With 3-(Perfluoro-2-butyl) propane-1,2-diol the Clint.1.Med ([2]; Bayesian analysis median, 1 μM assay concentration (Table S9)) was 4.6, the “Bkgd-Sub Clearance (µL/min/106 hepatocytes)” value ([2]; background-subtracted) was 5.876 µL/min/106 hepatocytes and the “Unadj Clint” value ([2]; hepatocyte clearance, Conc 1000 nM, not background adjusted) was 8.61. For the same compound, the “Concentration (nM), Time 0 min” value [2, 9] was 880.591 nM and 1037.48 nM and 1054.86 nM, the “Concentration (nM), Time 15 min” value [2, 9] was 858.26 nM and 1099.86 nM and 993.717 nM and the “Concentration (nM), Time 30 min” value [2, 9] was 742.136 nM and 974.371 nM and 915.81 nM. The “Concentration (nM), Time 60 min” value [2, 9] was 904.196 nM and 908.986 nM and 744.943 nM, the “Concentration (nM), Time 120 min” value [2, 9] was 623.052 nM and 608.094 nM and 642.654 nM and the “Concentration (nM), Time 240 min” value [2, 9] was 400.866 nM and 351.17 nM and 326.466 nM. For the same compound, the “Linear Regression Results, Best-Fit Values, Slope” value ([2]; hepatocyte time course) was -0.004305, the “Linear Regression Results, Best-Fit Values, Clearance” value [2, 16] was 8.61 and the “Linear Regression Results, Best-Fit Values, Half Life” value [2, 16] was 160.976. For the same compound, the “In Vitro Clint” value ([2]; pooled human hepatocyte suspensions, 1 μM) was 5.88 μL/min/10^6 cells, the “Unadj in vitro Clint” value ([2]; unadjusted hepatocyte intrinsic clearance) was 8.61 and the Hep_Stab_Fail [3] was 0. For the same compound, the “HT BkgdCl, Half Life” value [3, 10] was 285.42, the “HT BkgdCl, Slope” value [3, 10] was -0.002428 and the “Negative Controls, Heat Treated (HT), concentration at 0 min” value [3] was 1083.95 nM and 2011.47 nM and 1037.82 nM. The “Negative Controls, Heat Treated (HT), concentration at 240 min” value [3] was 725.383 nM and 763.18 nM and 711.759 nM, the “No Cells BkgdCl, Half Life” value ([3]; no cells control, 0 vs 240 min) was 506.95 and the “No Cells BkgdCl, Slope” value ([3]; no cells control, 0 vs 240 min) was -0.001367. For the same compound, the “Negative Controls, No cells (NC), concentration at 0 min” value [3] was 1136.56 nM and 1061.97 nM, the “Negative Controls, No cells (NC), concentration at 240 min” value [3] was 792.448 nM and 800.439 nM and 781.338 nM and the Css [4, 11] was 0.09 mg/L and 0.30 uM. It also gave a Clhep [4] of 28.460 L/h, an AED [4] of 6.5951 mg/kg/day and a Fub [4] of 0.672. For the same compound, the Css [4, 12] was 0.30 µM, the CLint [4] was 1032293 µL/min and the LOEC [5, 13] was 2.00 µM. For the same compound, the LOEC [5, 14] was 2 µM, the “Stability (T5hr/ T1hr), Run-specific Avg” value [7] was 0.962 and the PPB_Stab_Fail [7] was 0. For the same compound, the “Mean Stability” value [7] was 0.965, the Fstable.Med [7] was 0.232 and the “Stability (T5hr/ T1hr), replicates A, B, C” value [7] was 0.883 and 0.994 and 1.018. For the same compound, the “Fraction Unbound (fu), Run-specific Avg” value ([8]; average of one UC run (run date in line above)) was 0.37, the Mean fu ([8]; fraction unbound in human plasma, ultracentrifugation, some values based on eLOQ) was 0.3696 and the fup [8, 15] was 0.3696. The “Mean Fu” value ([8]; mean fraction unbound over all replicates and runs, UC assay, human plasma) was 0.370, the Fup.Med [8] was 0.364 and the Fup.point [8] was 0.37. The “Fraction Unbound (fu), replicates A, B, C” value [8] was 0.349 and 0.339 and 0.421.

— paper PMC10223284, “Category-Based Toxicokinetic Evaluations of Data-Poor Per- and Polyfluoroalkyl Substances (PFAS) using Gas Chromatography Coupled with Mass Spectrometry” (Toxics, 2023)
